The source of these data is patent US20040228906A1 (priority 2001, published 2004).

Where two headings read alike, the source gives them in different places.

The test system of series [1] is bladder overactivity induced by oxyhemoglobine. In words: Cystometry with wake rats damaged by oxyhemoglobin (urge incontinence model). The format is in vivo, Sprague-Dawley rat.
Series [2] concerns bladder or urethra. The conditions noted are these: epidural application, 4 μg/kg (Batra) or 2 μg/kg (Drenger, dogs); cited from earlier work.
For series [3] the following is noted: cited from earlier work.
For series [4] the following is noted: cited from earlier work. This is another data set of the same source.
Series [5] has as its system bladder function. The conditions noted are these: rat model with rhythmic bladder contraction; cited from earlier work.
Setting [6] is: after use of the substances, OxyHb 2.5 × 10^−4M, buprenorphine 0.005 mg/kg iv where given.
The mark [7] stands for this setting: before use of the substances, OxyHb 2.5 × 10^−4M, buprenorphine 0.005 mg/kg iv where given.
Where [8] appears, read: change compared to the pre-basis.

Consider OxyHb, for which, in series [1] (setting [6]), the “ICI inter-contraction interval, after (a)” value is recorded as “a: 3.33 ± 0.18 min”; the “MP Micturition pressure, after (a)” value is given as “a: 97 ± 5 cm H2O”; the “TP threshold pressure, after (a)” value is listed as “a: 9.84 ± 1.56 cm H2O”; the “bladder capacity, after (a)” value is “a: 0.65 ± 0.06 ml”. In series [1] (setting [7]), the “ICI inter-contraction interval, before (b)” value is listed as “b: 4.96 ± 0.33 min”; the “MP Micturition pressure, before (b)” value is recorded as “b: 59 ± 8 cm H2O”; the “TP threshold pressure, before (b)” value is on record as “b: 8.72 ± 1.31 cm H2O”; the “bladder capacity, before (b)” value is given as “b: 0.92 ± 0.10 ml”. For the same molecule, in series [1] (setting [8]), the “ICI inter-contraction interval, Diff.” value was “Diff.: −32.9%”; the “MP Micturition pressure, Diff.” value was “Dif.: +64.4%”; the “TP threshold pressure, Diff.” value is on record as “Diff.: +12.8%”; the “bladder capacity, Diff.” value is reported as “Diff.: −29.3%”.
For the molecule “21-cyclopropyl-7-α-[(S)-1-hydroxy-1,2,2-trimethylpropyl]-6,14-endo-ethano-6,7,8,14-tetrahydrooripavine [buprenorphine]”, the “influence on the function of bladder or urethra” value in series [2] is listed as “does not have a significant influence”. For the same molecule, the plasma concentration entry in series [3] (about 5 minutes after intravenous 0.3 mg) is “about 9 ng/ml”; in series [3] (about 3 hours after intramuscular 0.3-mg dose), “about 0.4 ng/ml”. In addition, the “time of mean peak plasma concentration” value in series [3] (intravenous single dose of about 0.3 mg) was at most 2 min. Also, the figures for the Cmax in series [4] (0.4 mg sublingual dose) and in series [4] (0.8 mg sublingual dose) were 0.50 ng/mL and 1.04 ng/mL, respectively.
As to `COc1cccc(C2(O)CCCCC2CN(C)C)c1` (stereo not shown) [tramadol], the “effect on bladder function” value in series [5] is “positive effect”.
